Results on twelve compounds are retold here after ChEMBL document CHEMBL5291721, “A preclinical secondary pharmacology resource illuminates target-adverse drug reaction associations of marketed drugs” (Nat Commun, 2023).

A value given as a limit tells only on which side of the number the result lay.

Assay [1] deals with T1, Acetylcholinesterase (Homo sapiens, UniProt P22303). Format: functional.
For assay [2], the target named is Neuronal acetylcholine receptor subunit alpha-4 (Homo sapiens, UniProt P43681).
Assay [3] addresses Cannabinoid receptor 1 (Homo sapiens, UniProt P21554).
Assay [4] concerns the target D(1A) dopamine receptor (Homo sapiens, UniProt P21728). Format: functional, cell-based.
In assay [5] the target is T2, Gamma-aminobutyric acid receptor subunit alpha-1 (Rattus norvegicus, UniProt P62813).
The target in assay [6] is T2, Gamma-aminobutyric acid receptor subunit alpha-1. It is filed as functional.
Assay [7] concerns the target Glutamate receptor ionotropic, NMDA 1 (Rattus norvegicus, UniProt P35439).
The target in assay [8] is T3, 5-hydroxytryptamine receptor 2B (Homo sapiens, UniProt P41595). It is filed as functional, cell-based.
For assay [9], the target named is T3, 5-hydroxytryptamine receptor 2B. Format: functional, cell-based. The source holds these as a separate data set.
Assay [10] addresses Kappa-type opioid receptor (Homo sapiens, UniProt P41145).
Assay [11] concerns the target T4, Mu-type opioid receptor (Homo sapiens, UniProt P35372). In words: biochemical. It is filed as functional.
For assay [12], the target named is Sodium-dependent noradrenaline transporter (Homo sapiens, UniProt P23975).
The target of assay [13] is T4, Mu-type opioid receptor.
In assay [14] the target is D(3) dopamine receptor (Homo sapiens, UniProt P35462).
For assay [15], the target named is T1, Acetylcholinesterase. It is filed as functional. This is another data set of the same source.
In assay [16] the target is Bile salt export pump (Homo sapiens, UniProt O95342). Format: functional.
The target in assay [17] is Voltage-gated inwardly rectifying potassium channel KCNH2 (Homo sapiens, UniProt Q12809). Format: functional. To be noted: read-out: AC50.
In assay [18] the target is T5, Alpha-2C adrenergic receptor (Homo sapiens, UniProt P18825).
T5 sequence (P18825 whole entry): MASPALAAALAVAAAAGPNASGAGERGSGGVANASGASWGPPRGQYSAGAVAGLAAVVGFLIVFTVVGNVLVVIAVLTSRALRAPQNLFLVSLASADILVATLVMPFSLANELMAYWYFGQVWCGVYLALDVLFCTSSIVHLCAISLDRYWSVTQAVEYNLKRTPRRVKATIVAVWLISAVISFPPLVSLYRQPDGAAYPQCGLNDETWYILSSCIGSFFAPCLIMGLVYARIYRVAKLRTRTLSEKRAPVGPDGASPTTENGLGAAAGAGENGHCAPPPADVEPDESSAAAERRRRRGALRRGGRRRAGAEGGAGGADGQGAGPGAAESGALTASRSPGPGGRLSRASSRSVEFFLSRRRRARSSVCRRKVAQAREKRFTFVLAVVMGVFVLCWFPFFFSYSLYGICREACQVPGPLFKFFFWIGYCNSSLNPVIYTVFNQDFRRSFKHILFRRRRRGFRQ
It is filed as functional.

Assay [19] has as its target 5-hydroxytryptamine receptor 2A (Homo sapiens, UniProt P28223). Format: functional, cell-based.
In assay [20] the target is T6, Muscarinic acetylcholine receptor M4 (Homo sapiens, UniProt P08173).
T6 sequence (P08173 whole entry): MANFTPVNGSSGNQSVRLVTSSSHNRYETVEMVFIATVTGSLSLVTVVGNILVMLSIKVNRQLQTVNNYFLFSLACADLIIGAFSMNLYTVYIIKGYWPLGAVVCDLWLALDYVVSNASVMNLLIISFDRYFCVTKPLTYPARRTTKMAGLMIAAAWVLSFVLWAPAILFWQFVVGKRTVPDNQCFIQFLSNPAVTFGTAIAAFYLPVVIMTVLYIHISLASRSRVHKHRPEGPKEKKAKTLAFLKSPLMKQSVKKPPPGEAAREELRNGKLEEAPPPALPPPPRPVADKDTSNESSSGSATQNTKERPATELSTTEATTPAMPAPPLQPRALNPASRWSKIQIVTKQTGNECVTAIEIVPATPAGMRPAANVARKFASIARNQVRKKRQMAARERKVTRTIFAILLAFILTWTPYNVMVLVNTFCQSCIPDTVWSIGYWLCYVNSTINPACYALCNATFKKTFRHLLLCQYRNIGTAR

Assay [21] deals with T7, Muscarinic acetylcholine receptor M5 (Homo sapiens, UniProt P08912).
T7 sequence (P08912 whole entry): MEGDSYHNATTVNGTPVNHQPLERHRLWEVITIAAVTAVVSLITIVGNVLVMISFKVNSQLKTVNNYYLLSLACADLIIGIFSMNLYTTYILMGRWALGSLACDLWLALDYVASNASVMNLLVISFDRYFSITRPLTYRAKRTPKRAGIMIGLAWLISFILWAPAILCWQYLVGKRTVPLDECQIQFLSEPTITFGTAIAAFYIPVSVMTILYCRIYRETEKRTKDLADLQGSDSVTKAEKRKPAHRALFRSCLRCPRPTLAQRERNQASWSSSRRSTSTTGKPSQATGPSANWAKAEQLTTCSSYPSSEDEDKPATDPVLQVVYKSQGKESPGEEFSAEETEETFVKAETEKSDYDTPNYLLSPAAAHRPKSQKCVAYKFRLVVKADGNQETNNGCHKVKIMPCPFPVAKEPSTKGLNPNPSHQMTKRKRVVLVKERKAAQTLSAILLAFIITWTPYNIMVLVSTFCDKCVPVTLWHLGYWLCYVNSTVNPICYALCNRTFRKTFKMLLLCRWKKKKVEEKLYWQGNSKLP
Further: assay procedure not described here.

T1 sequence (P22303 whole entry): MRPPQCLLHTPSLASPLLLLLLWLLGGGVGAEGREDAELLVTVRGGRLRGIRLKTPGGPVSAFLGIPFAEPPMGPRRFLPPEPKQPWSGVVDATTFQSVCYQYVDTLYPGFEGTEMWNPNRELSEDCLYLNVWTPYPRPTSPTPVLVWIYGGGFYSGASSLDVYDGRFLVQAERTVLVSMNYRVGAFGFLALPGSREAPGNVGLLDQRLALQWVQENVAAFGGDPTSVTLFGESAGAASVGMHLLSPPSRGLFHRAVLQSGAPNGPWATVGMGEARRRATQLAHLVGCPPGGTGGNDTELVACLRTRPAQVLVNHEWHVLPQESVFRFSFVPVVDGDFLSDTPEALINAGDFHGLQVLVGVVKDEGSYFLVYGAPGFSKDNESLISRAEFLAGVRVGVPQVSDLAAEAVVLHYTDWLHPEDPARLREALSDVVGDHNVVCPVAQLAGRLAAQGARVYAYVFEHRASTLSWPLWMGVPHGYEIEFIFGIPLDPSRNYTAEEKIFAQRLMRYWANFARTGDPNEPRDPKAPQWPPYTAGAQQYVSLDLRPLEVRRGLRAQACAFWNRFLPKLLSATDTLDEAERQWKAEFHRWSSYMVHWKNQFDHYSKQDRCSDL
T2 sequence (P62813 whole entry): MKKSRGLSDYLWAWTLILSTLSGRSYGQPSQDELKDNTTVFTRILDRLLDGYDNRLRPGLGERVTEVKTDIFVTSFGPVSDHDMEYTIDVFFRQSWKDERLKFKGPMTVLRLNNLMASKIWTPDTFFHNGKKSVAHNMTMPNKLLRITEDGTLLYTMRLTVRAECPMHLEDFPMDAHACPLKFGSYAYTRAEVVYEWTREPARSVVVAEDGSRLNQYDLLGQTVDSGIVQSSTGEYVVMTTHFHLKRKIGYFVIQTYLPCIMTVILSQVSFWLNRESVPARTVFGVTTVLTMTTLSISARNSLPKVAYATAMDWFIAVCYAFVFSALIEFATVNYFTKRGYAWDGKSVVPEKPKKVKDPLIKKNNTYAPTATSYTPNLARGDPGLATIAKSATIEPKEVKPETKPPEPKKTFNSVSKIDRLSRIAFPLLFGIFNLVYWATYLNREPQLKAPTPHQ
T3 sequence (P41595 whole entry): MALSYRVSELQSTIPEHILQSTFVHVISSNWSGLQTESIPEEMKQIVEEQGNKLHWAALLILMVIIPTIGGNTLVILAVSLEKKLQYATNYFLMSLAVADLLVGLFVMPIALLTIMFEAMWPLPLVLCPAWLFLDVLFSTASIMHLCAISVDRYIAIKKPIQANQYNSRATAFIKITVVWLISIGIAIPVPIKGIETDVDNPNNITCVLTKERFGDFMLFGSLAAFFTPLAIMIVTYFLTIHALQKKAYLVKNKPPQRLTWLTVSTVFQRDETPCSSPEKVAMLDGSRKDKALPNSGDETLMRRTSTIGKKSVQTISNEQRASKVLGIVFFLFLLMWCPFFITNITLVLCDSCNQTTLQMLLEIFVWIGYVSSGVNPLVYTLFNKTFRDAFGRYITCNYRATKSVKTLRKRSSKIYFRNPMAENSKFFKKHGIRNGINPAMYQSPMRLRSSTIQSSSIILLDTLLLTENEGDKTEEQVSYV
T4 sequence (P35372 whole entry): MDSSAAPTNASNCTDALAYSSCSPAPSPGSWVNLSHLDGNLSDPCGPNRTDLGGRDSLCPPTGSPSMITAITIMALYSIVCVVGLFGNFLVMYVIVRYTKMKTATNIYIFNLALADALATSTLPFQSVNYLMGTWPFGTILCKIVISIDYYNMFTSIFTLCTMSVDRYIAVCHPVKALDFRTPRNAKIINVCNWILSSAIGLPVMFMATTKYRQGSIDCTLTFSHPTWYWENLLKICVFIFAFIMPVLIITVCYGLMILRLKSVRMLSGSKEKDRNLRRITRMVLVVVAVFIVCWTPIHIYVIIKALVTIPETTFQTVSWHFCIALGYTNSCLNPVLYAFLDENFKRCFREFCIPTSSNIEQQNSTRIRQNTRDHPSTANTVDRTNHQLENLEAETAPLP
Sodium-dependent noradrenaline transporter, sequence (P23975 whole entry): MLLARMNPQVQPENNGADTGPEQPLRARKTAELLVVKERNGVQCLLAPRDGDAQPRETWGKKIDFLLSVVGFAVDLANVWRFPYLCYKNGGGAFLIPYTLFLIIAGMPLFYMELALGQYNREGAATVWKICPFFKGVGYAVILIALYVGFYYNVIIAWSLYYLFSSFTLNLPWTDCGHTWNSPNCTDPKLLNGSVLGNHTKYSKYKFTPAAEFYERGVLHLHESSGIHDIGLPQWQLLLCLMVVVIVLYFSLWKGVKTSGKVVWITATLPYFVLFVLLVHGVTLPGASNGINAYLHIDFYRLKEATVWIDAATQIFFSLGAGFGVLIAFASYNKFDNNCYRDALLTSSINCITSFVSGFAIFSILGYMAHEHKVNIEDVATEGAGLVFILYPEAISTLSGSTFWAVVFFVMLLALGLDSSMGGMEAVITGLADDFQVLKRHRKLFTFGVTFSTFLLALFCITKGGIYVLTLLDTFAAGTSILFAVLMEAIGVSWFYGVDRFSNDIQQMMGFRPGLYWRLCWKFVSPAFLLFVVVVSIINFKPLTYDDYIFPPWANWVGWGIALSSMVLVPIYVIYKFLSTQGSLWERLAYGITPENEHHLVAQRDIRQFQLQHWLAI
Neuronal acetylcholine receptor subunit alpha-4, sequence (P43681 whole entry): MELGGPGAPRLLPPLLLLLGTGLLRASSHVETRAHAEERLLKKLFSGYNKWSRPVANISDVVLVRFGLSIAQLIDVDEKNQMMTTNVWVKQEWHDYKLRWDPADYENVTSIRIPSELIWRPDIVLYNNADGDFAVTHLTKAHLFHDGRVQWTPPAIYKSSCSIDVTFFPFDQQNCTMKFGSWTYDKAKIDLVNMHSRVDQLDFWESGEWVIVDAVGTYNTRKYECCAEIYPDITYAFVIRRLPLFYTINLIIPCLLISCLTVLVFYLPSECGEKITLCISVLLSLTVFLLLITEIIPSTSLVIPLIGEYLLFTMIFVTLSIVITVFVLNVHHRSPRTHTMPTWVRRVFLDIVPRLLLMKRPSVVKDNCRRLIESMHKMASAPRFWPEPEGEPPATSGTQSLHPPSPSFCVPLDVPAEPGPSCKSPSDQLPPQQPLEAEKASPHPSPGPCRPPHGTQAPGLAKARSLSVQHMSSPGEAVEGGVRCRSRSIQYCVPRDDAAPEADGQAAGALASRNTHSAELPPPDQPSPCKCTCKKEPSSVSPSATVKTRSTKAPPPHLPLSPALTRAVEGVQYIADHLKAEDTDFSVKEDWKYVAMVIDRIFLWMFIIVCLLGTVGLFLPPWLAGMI
Voltage-gated inwardly rectifying potassium channel KCNH2, sequence (Q12809 whole entry): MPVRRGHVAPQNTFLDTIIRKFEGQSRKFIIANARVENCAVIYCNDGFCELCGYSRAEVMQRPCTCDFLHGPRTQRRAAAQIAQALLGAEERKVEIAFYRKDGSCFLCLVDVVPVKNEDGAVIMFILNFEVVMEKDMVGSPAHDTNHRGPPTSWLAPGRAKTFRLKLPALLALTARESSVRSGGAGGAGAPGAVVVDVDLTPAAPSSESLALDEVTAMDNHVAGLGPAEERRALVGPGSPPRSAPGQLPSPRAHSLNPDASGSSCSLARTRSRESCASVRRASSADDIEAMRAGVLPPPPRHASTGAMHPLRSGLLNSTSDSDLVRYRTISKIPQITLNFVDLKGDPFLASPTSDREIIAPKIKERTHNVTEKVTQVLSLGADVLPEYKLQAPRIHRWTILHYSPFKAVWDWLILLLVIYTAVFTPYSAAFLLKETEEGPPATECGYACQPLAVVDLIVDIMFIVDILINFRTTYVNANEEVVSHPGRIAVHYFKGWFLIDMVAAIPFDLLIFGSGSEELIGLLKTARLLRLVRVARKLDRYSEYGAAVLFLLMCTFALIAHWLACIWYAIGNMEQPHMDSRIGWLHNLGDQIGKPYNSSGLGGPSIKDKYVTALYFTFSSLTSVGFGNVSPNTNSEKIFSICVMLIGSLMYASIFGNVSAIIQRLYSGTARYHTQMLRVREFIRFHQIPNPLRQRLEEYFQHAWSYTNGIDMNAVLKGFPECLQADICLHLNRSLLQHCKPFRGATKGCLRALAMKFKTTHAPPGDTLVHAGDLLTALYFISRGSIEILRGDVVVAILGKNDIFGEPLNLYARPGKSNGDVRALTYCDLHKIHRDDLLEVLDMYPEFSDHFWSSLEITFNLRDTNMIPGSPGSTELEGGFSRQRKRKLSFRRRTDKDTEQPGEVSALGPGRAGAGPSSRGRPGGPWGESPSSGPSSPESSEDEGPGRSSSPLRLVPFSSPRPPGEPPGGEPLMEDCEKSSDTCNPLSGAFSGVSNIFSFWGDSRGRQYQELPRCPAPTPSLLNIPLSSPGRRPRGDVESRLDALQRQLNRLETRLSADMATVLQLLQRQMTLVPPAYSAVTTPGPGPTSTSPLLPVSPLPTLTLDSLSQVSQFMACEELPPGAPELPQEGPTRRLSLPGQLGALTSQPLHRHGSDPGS
5-hydroxytryptamine receptor 2A, sequence (P28223 whole entry): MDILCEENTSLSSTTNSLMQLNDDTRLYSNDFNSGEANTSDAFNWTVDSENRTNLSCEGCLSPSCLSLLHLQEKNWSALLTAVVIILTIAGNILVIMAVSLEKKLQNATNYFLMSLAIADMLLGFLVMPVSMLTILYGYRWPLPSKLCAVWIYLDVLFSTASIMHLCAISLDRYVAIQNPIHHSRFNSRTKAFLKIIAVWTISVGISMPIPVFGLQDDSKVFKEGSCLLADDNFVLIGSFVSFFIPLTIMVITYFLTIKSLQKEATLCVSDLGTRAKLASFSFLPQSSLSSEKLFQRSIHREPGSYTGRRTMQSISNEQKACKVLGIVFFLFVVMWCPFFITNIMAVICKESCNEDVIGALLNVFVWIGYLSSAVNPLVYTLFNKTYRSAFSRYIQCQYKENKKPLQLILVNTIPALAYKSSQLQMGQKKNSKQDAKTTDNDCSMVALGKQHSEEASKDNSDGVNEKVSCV

For `CCN(CC)C(=S)SSC(=S)N(CC)CC`, the activity in assay [1] was half-maximal at 14.2 µM (AC50).
Compound `CCCC(=O)Nc1ncnc2c1ncn2[C@@H]1O[C@@H]2COP(=O)(O)O[C@H]2[C@H]1OC(=O)CCC` [BUCLADESINE] returned a half-maximal activity concentration (AC50) in assay [1] above 30 µM.
Consider `O=C1CC2(CCCC2)CC(=O)N1CCCCN1CCN(c2ncccn2)CC1` [BUSPIRONE], for which the AC50 in assay [2] was above 10 µM; in assay [3] it was 17.5 µM; in [4], above 10 µM; in [5], above 10 µM; in assay [6] it was above 10 µM; in assay [7] it was above 10 µM. Besides, the AC50 in assay [8] was above 10 µM; in [9], 7.37 µM; in assay [10], above 10 µM; in assay [11], above 30 µM; in assay [12], above 30 µM; in assay [13], above 30 µM. Besides, in assay [14], half-maximal activity (AC50) was put at 0.048 µM.
In assay [15], `NC(=O)OC[C@@H]1[C@H](NC(=O)/C(=N\OCC(=O)O)c2csc(N)n2)C(=O)N1S(=O)(=O)O` [CARUMONAM] showed an AC50 above 500 µM.
Take `CC/C(=C(/CC)c1ccc(O)cc1)c1ccc(O)cc1` [DIETHYLSTILBESTROL]: the AC50 in assay [1] is above 30 µM.
In the case of `Nc1cccc2c1CN(C1CCC(=O)NC1=O)C2=O` (configuration not stated) [LENALIDOMIDE], the concentration at half-maximal activity (AC50) in assay [16] was above 300 µM.
In assay [1], `NCCCC[C@H](N[C@@H](CCc1ccccc1)C(=O)O)C(=O)N1CCC[C@H]1C(=O)O` [LISINOPRIL ANHYDROUS] displayed an AC50 above 30 µM.
For the compound `C[N+]1(C)[C@@H]2CC[C@H]1C[C@@H](OC(=O)C(O)c1ccccc1)C2` (some centres not stated) [METHYLHOMATROPINE], the AC50 in assay [17] is above 30 µM.
As to `CN1CCN2c3ccccc3Cc3ccccc3C2C1` (configuration not stated) [MIANSERIN], the AC50 is above 30 µM in [1] and 0.05 µM in [18].
In [1], `CC(=O)[C@H]1CC[C@H]2[C@@H]3CCC4=CC(=O)CC[C@]4(C)[C@H]3CC[C@]12C` [PROGESTERONE] showed an AC50 above 30 µM.
Consider `CCN(c1cc(-c2ccc(CN3CCOCC3)cc2)cc(C(=O)NCc2c(C)cc(C)[nH]c2=O)c1C)C1CCOCC1` [TAZEMETOSTAT], for which the AC50 in assay [19] and in assay [15] was above 30 µM each time.
Consider `C[N+]1(C)[C@@H]2C[C@@H](OC(=O)C(O)(c3cccs3)c3cccs3)C[C@H]1[C@@H]1O[C@@H]12` [TIOTROPIUM BROMIDE], for which the half-maximal activity concentration (AC50) was 0.0003 µM in assay [20] and 0.0015 µM in assay [21].
